# Entries after “also recorded” stand apart in the source; their conditions may differ. Where a SMILES comes first, the peptide text is derived from it. [ ]: non-standard residue; d: D form.
# Tests used:
# [1] = Rat administration study, detection in plasma after intravenous administration; assay type: in vivo, Wistar; settings: for In vivo biotransformation in rats (in words) / Anticipated metabolic products (N- or C-terminally truncated analogues) in rat plasma / Detection of intact GHRH in rat plasma 4 h post-administration / Detection of intact GHRH in rat plasma 8 h post-administration: 0.1 mg intravenous; for In vivo biotransformation in rats (in words): compared to CJC-1295; for Anticipated metabolic products (N- or C-terminally truncated analogues) in rat plasma: plasma 2, 4 and 8 h; for Detection of intact GHRH in rat plasma 4 h post-administration: plasma 4 h post dosing; for Detection of intact GHRH in rat plasma 4 h post-administration / Detection of intact GHRH in rat plasma 8 h post-administration: immunoaffinity purification and LC-HRMS/MS; for Detection of intact GHRH in rat plasma 8 h post-administration: plasma 8 h post dosing (latest collection time point)
# Procedure: (§1) Sample aliquots of 100 μL of plasma were spiked with 1 μL of ISTD [200 ng/mL] and diluted with 100 μL of PBS before extraction. The multichannel pipette was equipped with up to 12 protein A/G MSIA™-Tips and up to 2000 cycles (one cycle corresponding to one round of liquid aspiration and ejection) were used for distinct sample preparation steps as outlined in Table 2. First, tips were conditioned with PBS before binding 10 μg of the polyclonal GHRH primary antibody (5 μL [2 mg/mL] in 95 μL PBS) to the proteins A/G immobilized on the monolithic adsorbent surface. After washing with PBS to remove unbound antibody residues the target analytes were extracted from plasma by antibody-antigen complex formation prior to three consecutive washing steps with PBS and water (Table 2). The peptides of interest were eluted into LoBind tubes using 3 % of aqueous acetic acid and the eluate was immediately used for injection into the UHPLC-MS(/MS) system. In Fig. 1, a schematic illustration of the relevant principle steps of the MSIA™ purification is presented.
# To probe for the in vivo metabolism of Sermorelin, CJC-1293, CJC-1295, and Tesamorelin, 0.1 mg of each GHRH was administered intravenously to three rats (Rattus norvegicus, Wistar, 200–300 g bodyweight at dosing). Urine samples were collected in a metabolic cage prior to and 6, 12, 24, and 30 h after administration but not subjected to analysis in this study. Blood was sampled at 2, 4, and 8 h after injection and specimens were centrifuged at 13,000×g for 20 min to produce serum or EDTA plasma, which was stored at −20 °C until analysis. The animal studies were conducted with approval of the respective ethical committee and the laboratory followed the directive 2010/63/EU of the European parliament and the council of 22 September 2010 on the protection of animals used for scientific purposes.
# All intact GHRHs administered intravenously to rats were detected in plasma samples collected 2 h post dosing. In addition, Tesamorelin, CJC-1295, and CJC-1293 were also identified in specimens sampled 4 and 8 h post-administrating (Fig. 3), with the 8-h sample representing the latest collection time point of the study. Here it appears noteworthy that only qualitative results were obtained and that no pharmacokinetic interpretation was conducted. While all analytes were unequivocally identified and differentiated by mass spectrometry, chromatographic separation was accomplished for all target peptides with the exemption of the closely related compounds Sermorelin and CJC-1293 under the chosen analytical conditions.
# [2] = In vitro incubation in fresh human plasma (metabolic fate / degradation); assay type: in vitro ADME; settings: fresh human plasma diluted 1:1 with PBS, qualitative; for Degradation products (metabolites) detected after incubation in human plasma: spiked to 10 μg/mL, 30, 60, 120 and 240 min at 37 °C, LC-HRMS full scan before vs after incubation
# Procedure: For the investigation of the metabolic fate of GHRHs, in vitro experiments using fresh human plasma samples were conducted, allowing to test for potential degradation products of the studied substances. In accordance to earlier reported methods, aliquots of human plasma samples were diluted (1:1) with PBS [22] and spiked to 10 μg/mL with Sermorelin or Tesamorelin, respectively. After incubation for 30, 60, 120, and 240 min at 37 °C, samples were prepared and analyzed as described elsewhere. Simulating degradation processes of exopeptidases, potential metabolites were considered by eliminating up to three amino acids from both N- and C-terminus. All samples were probed for the anticipated metabolic products as well as for the corresponding intact drugs.
# Identifying potential metabolites of Sermorelin and Tesamorelin was accomplished by subtracting and comparing mass spectrometric full scan data of samples prepared before and after incubation of the substrates in fresh human plasma.
# [3] = Human administration study, detection in EDTA plasma after subcutaneous Geref (Sermorelin); assay type: in vivo; settings: healthy volunteer, 500 μg Geref (Sermorelin) subcutaneous, n = 1
# Procedure: as §1
# Complementary to the aforementioned rat elimination study, a single dose of 500 μg of Geref (Sermorelin) (Hallandale Pharmacy, FL, USA) was self-administered subcutaneously by a healthy volunteer (78 kg) following the provision of written consent. EDTA plasma samples were collected 30, 90, and 270 min after dosing and the specimens were stored at −20 °C until analysis.
# Compared to rat plasma samples collected after the intravenous application of Sermorelin, the human in vivo study (using subcutaneous drug application) indicates a different but also rapid metabolism of the peptide hormone. While the intact drug was not detected in any of the collected plasma samples, the in vitro-derived Sermorelin metabolite GRF3-29 was detected in plasma 30 min post injection (Fig. 4).
# [4] = test system: dipeptidyl peptidase-IV (DPP-IV); experiment: in vitro; settings: cited from earlier work
# [5] = fresh human plasma samples diluted (1:1) with PBS; settings: 37 °C, up to 240 min
# [6] = EDTA plasma samples after subcutaneous self-administration of Geref (Sermorelin); settings: human, up to 270 min
# [7] = rat serum or EDTA plasma after intravenous administration; settings: rats (Rattus norvegicus, Wistar), up to 8 h
compound,measurement,setting,value
"CC[C@H](C)[C@H](NC(=O)[C@H](C)NC(=O)[C@H](CC(=O)O)NC(=O)[C@@H](C)NC(=O)[C@@H](N)Cc1ccc(O)cc1)C(=O)N[C@@H](Cc1ccccc1)C(=O)N[C@H](C(=O)N[C@@H](CC(N)=O)C(=O)N[C@@H](CO)C(=O)N[C@@H](Cc1ccc(O)cc1)C(=O)N[C@@H](CCCNC(=N)N)C(=O)N[C@@H](CCCCN)C(=O)N[C@H](C(=O)N[C@@H](CC(C)C)C(=O)NCC(=O)N[C@@H](CCC(N)=O)C(=O)N[C@@H](CC(C)C)C(=O)N[C@@H](CO)C(=O)N[C@@H](C)C(=O)N[C@@H](CCCNC(=N)N)C(=O)N[C@@H](CCCCN)C(=O)N[C@@H](CC(C)C)C(=O)N[C@@H](CC(C)C)C(=O)N[C@@H](CCC(N)=O)C(=O)N[C@@H](CC(=O)O)C(=O)N[C@H](C(=O)N[C@@H](CCSC)C(=O)N[C@@H](CO)C(=O)N[C@@H](CCCNC(=N)N)C(N)=O)[C@@H](C)CC)C(C)C)[C@@H](C)O [CJC-1293, (D-Ala^2)-GRF amide]",In vivo biotransformation in rats (in words),[1],readily biotransformed
same,Anticipated metabolic products (N- or C-terminally truncated analogues) in rat plasma,[1]; qualitative,none of the anticipated metabolic products; also recorded: no analogous metabolites
same,Detection of intact GHRH in rat plasma 4 h post-administration,[1]; qualitative,identified
same,Detection of intact GHRH in rat plasma 8 h post-administration,[1]; qualitative,identified
"CC[C@H](C)[C@H](NC(=O)[C@H](C)NC(=O)[C@H](CC(=O)O)NC(=O)[C@@H](C)NC(=O)[C@@H](N)Cc1ccc(O)cc1)C(=O)N[C@@H](Cc1ccccc1)C(=O)N[C@H](C(=O)N[C@@H](CCC(N)=O)C(=O)N[C@@H](CO)C(=O)N[C@@H](Cc1ccc(O)cc1)C(=O)N[C@@H](CCCNC(=N)N)C(=O)N[C@@H](CCCCN)C(=O)N[C@H](C(=O)N[C@@H](CC(C)C)C(=O)N[C@@H](C)C(=O)N[C@@H](CCC(N)=O)C(=O)N[C@@H](CC(C)C)C(=O)N[C@@H](CO)C(=O)N[C@@H](C)C(=O)N[C@@H](CCCNC(=N)N)C(=O)N[C@@H](CCCCN)C(=O)N[C@@H](CC(C)C)C(=O)N[C@@H](CC(C)C)C(=O)N[C@@H](CCC(N)=O)C(=O)N[C@@H](CC(=O)O)C(=O)N[C@H](C(=O)N[C@@H](CC(C)C)C(=O)N[C@@H](CO)C(=O)N[C@@H](CCCNC(=N)N)C(N)=O)[C@@H](C)CC)C(C)C)[C@@H](C)O [CJC-1295, (D-Ala^2, Gln^8, Ala^15, Leu^27)-GRF amide] (H-Y[dA]DAIFTQSYRKVLAQLSARKLLQDILSR-NH2)",Anticipated metabolic products (N- or C-terminally truncated analogues) in rat plasma,[1]; qualitative,no analogous metabolites
same,Detection of intact GHRH in rat plasma 4 h post-administration,[1]; qualitative,identified
same,Detection of intact GHRH in rat plasma 8 h post-administration,[1]; qualitative,identified
"CC[C@H](C)[C@H](NC(=O)[C@H](C)NC(=O)[C@H](CC(=O)O)NC(=O)[C@H](C)NC(=O)[C@@H](N)Cc1ccc(O)cc1)C(=O)N[C@@H](Cc1ccccc1)C(=O)N[C@H](C(=O)N[C@@H](CC(N)=O)C(=O)N[C@@H](CO)C(=O)N[C@@H](Cc1ccc(O)cc1)C(=O)N[C@@H](CCCNC(=N)N)C(=O)N[C@@H](CCCCN)C(=O)N[C@H](C(=O)N[C@@H](CC(C)C)C(=O)NCC(=O)N[C@@H](CCC(N)=O)C(=O)N[C@@H](CC(C)C)C(=O)N[C@@H](CO)C(=O)N[C@@H](C)C(=O)N[C@@H](CCCNC(=N)N)C(=O)N[C@@H](CCCCN)C(=O)N[C@@H](CC(C)C)C(=O)N[C@@H](CC(C)C)C(=O)N[C@@H](CCC(N)=O)C(=O)N[C@@H](CC(=O)O)C(=O)N[C@H](C(=O)N[C@@H](CCSC)C(=O)N[C@@H](CO)C(=O)N[C@@H](CCCNC(=N)N)C(N)=O)[C@@H](C)CC)C(C)C)[C@@H](C)O [Sermorelin, GHRH1-29]",Degradation products (metabolites) detected after incubation in human plasma,[2],the earlier reported metabolite (GRF3-29) [7] was observed
same,Intact drug remaining after incubation in human plasma,"[2]; spiked to 10 μg/mL, 37 °C, after a period of 4 h (240 min), LC-HRMS full scan",entirely degraded
same,Detection window of intact substance in plasma,"[1]; 0.1 mg intravenous single dose, sampling at 2, 4 and 8 h, qualitative",≤ 2 h
same,In vivo biotransformation in rats (in words),[1],readily biotransformed
same,Anticipated metabolic products (N- or C-terminally truncated analogues) in rat plasma,[1]; qualitative,none of the anticipated metabolic products
same,Detection of intact drug in human plasma after subcutaneous application,"[3]; EDTA plasma 30, 90 and 270 min after dosing",not detected
CC/C=C/CC(=O)N[C@@H](Cc1ccc(O)cc1)C(=O)N[C@@H](C)C(=O)N[C@@H](CC(=O)O)C(=O)N[C@@H](C)C(=O)N[C@H](C(=O)N[C@@H](Cc1ccccc1)C(=O)N[C@H](C(=O)N[C@@H](CC(N)=O)C(=O)N[C@@H](CO)C(=O)N[C@@H](Cc1ccc(O)cc1)C(=O)N[C@@H](CCCNC(=N)N)C(=O)N[C@@H](CCCCN)C(=O)N[C@H](C(=O)N[C@@H](CC(C)C)C(=O)NCC(=O)N[C@@H](CCC(N)=O)C(=O)N[C@@H](CC(C)C)C(=O)N[C@@H](CO)C(=O)N[C@@H](C)C(=O)N[C@@H](CCCNC(=N)N)C(=O)N[C@@H](CCCCN)C(=O)N[C@@H](CC(C)C)C(=O)N[C@@H](CC(C)C)C(=O)N[C@@H](CCC(N)=O)C(=O)N[C@@H](CC(=O)O)C(=O)N[C@H](C(=O)N[C@@H](CCSC)C(=O)N[C@@H](CO)C(=O)N[C@@H](CCCNC(=N)N)C(=O)N[C@@H](CCC(N)=O)C(=O)N[C@@H](CCC(N)=O)C(=O)NCC(=O)N[C@@H](CCC(=O)O)C(=O)N[C@@H](CO)C(=O)N[C@@H](CC(N)=O)C(=O)N[C@@H](CCC(N)=O)C(=O)N[C@@H](CCC(=O)O)C(=O)N[C@@H](CCCNC(=N)N)C(=O)NCC(=O)N[C@@H](C)C(=O)N[C@@H](CCCNC(=N)N)C(=O)N[C@@H](C)C(=O)N[C@@H](CCCNC(=N)N)C(=O)N[C@@H](CC(C)C)C(N)=O)[C@@H](C)CC)C(C)C)[C@@H](C)O)[C@@H](C)CC [Tesamorelin],Degradation products (metabolites) detected after incubation in human plasma,[2],no degradation products of considerable abundance were detected
same,Detection of intact GHRH in rat plasma 4 h post-administration,[1]; qualitative,identified
same,Detection of intact GHRH in rat plasma 8 h post-administration,[1]; qualitative,identified
"DAIFTNSYRKVLGQLSARKLLQDIMSR-NH2 [Sermorelin metabolite, GRF3-29, metabolite of Sermorelin originating from the loss of the N-terminal Tyr-Ala-residue]",Detection of metabolite in human plasma 30 min post injection,[3]; EDTA plasma 30 min,detected
same,Detection of metabolite in human plasma 90 min post injection,[3]; EDTA plasma 90 min,negative
YADAIFTNSYRKVLGQLSARKLLQDIMSR-NH2,cleaved bond,[4],Ala2-D3
same,cleaved bond,[5],Ala2-D3
same,cleaved bond,[6],"Ala2-D3, 30 min"
hexenoyl-YADAIFTNSYRKVLGQLSARKLLQDIMSRQQGESNQERGARARL-NH2,not cleaved,[5],no degradation products of considerable abundance were detected
same,not cleaved,[7],"identified at all sampling points (i.e., up to 8 h post-administration)"

# Reference: paper PMC4830873 (Analytical and Bioanalytical Chemistry, 2016)
